Laboratory results: patent US12097188B2, “Compositions and methods for the treatment of macular degeneration” (Aldeyra Therapeutics, Inc., priority 2009, dated 2024)
Like-named read-outs stand apart in the source and are kept apart here.

Tests used:
[1] = test system: visual cycle; test: Functional biological activity in the retina: visual cycle inhibition / dark adaptation rate by ERG; conditions: for effect on normal function of the retina: mouse, in vivo
Text: (§2) The protocol for measuring DA rates by ERG is based on the kinetics of functional visual recovery from photo-bleaching of visual pigment by brief exposure to extremely bright light.
(§3) A retinoid useful for this purpose is 13-cis-retinoic acid (RA, also known as isotretinoin).

[2] = test system: A2E formation; test: A2E formation in the abcr -/- mouse after repeated IP dosing; assay type: in vivo; conditions: 10 mg/kg IP, repeated daily for 56 days, p<0.01
Text: (§1) The target tissue, for the biological activity of compounds which reversibly react with RAL, e.g. Compounds A, B and C, is the outer segment of retinal photoreceptor cells.

[3] = in vivo; design: species or system C57BL/6 mice; conditions: ip, 10 mg/kg
Text: as §1

[4] = Ocular levels of 14C-Compound A in the retina and RPE of rabbits (LSC); assay type: in vivo, Dutch belted rabbits; conditions: for Amount of 14C-compound A in retina and RPE at tmax: rabbit, single 40 μL TO eyedrop, mean of 6 eyes
Procedure: Dutch belted rabbits were dosed TO with a single 40 μL eyedrop containing either 0.50%, 0.15% or 0.05% weight/volume ^14C-Compound A in 20%, 6% or 2% weight/volume, respectively, β-cyclodextrin sulfobutylether sodium salt in phosphate-buffered saline (Table 1). At different times after dosing the eyes of the rabbits were enucleated, dissected and the amount of ^14C-Compound A in the retina and RPE together was measured by LSC. Each value represents the mean value from 6 eyes.

[5] = test system: visual cycle; conditions: mouse, in vivo
Text: as §2, §3

## CC(C)(O)c1cc2oc(-c3ccccc3)nc2cc1N [C]
[1]
  effect on normal function of the retina: do not alter the normal function of the retina

## CC1=C(/C=C/C(C)=C/C=C/C(C)=C\C(=O)O)C(C)(C)CCC1 [RA, 13-cis-retinoic acid, reference compound]
[1]; mice, IP 20 mg/kg (FIG. 3)
  visual cycle inhibition: show visual cycle inhibition
[1]; mice, TO one or two 30 μL eyedrops, 0.2% w/v RA in 20% w/v β-cyclodextrin sulfobutylether sodium salt in PBS (FIG. 3)
  inhibition of dark adaptation (DA): dose-responsive inhibition of DA similar to that observed after IP dosing

## CC(C)(O)c1cc2nc(-c3ccccc3)oc2cc1N [B]
[1]
  effect on normal function of the retina: do not alter the normal function of the retina

## CC(C)(O)c1nc2ccc(Cl)cc2cc1N [Compound A]
[2]
  reduction of A2E formation: 71%
[3]; C57BL/6, mouse
  Cmax: 14400 ng/g
[3]; mouse
  Tmax in the posterior eyecup: Thirty
[4]; 0.05% w/v in 2% w/v βCSSA
  Amount of 14C-compound A in retina and RPE at tmax: 23.1 ng/g
[4]; 0.15% w/v in 6% w/v βCSSA
  Amount of 14C-compound A in retina and RPE at tmax: 47.0 ng/g
[4]; 0.50% w/v in 20% w/v βCSSA
  Amount of 14C-compound A in retina and RPE at tmax: 131 ng/g
[4]; within one hour of TO dosing
  amounts found in rabbit retina/RPE: Significant amounts
[5]
  effect on normal function of the retina: do not alter the normal function of the retina
  effect on rate of dark adaptation (DA): nor does it slow the rate of dark adaptation
  inhibition of the visual cycle: does not inhibit the visual cycle
